In US20170008888A1 (KYORIN PHARMACEUTICAL CO., LTD., priority 2014, published 2017):

What was measured:
MV-4-11 cells [1] = assay: Combination study with Ara-C in MV-4-11 cells (CellTiter-Glo); type: cell-based, human; conditions: 48 h
Method: Human biphenotypic B myelomonocytic leukemia MV-4-11 cells (ATCC, Manassas, Va.) treated with test compounds at 2e5 cells/ml in IMDM medium containing 10% (v/v) FBS (Life Technologies, Grand Island, N.Y.) and 1×Pen/Strep Amphotericin B (Lonza, Allendale, N.J.). The final concentration of a test compound was set at a concentration previously determined to be its EC50 and Y3 EC50 values, while the combination test drug (Arabinofuranosyl Cytidine (Ara-C))(Sigma, St. Louis, Mo.) was assayed in serially-diluted 9-point concentrations against this background. Cells were treated for 48 h at 37° C. in a humidified atmosphere at 5% CO2. Cell viability was then determined indirectly via ATP content using the CellTiter-Glo® luminescent cell viability assay (Promega, Madison, Wis.) as per the manufacturer's instructions as follows: Briefly, experimental plates were equilibrated at room temperature for 30 minutes. An equal volume of CellTiter-Glo reagent was added to each well and incubated for 15 minutes at room temperature. Luminescent signal was read using the Wallac 1420 Victor2 multilabel microplate reader (Perkin Elmer, Waltham, Mass.).

MV-4-11 cells [2] = assay: MV-4-11 proliferation EC50 assay (CellTiter-Glo); type: cell-based; conditions: Homo sapiens, MV4-11, 48 h, read-out: MV-4-11 proliferation EC50, ave. ± S.D.
Method: Human biphenotypic B myelomonocytic leukemia MV-4-11 cells (ATCC, Manassas, Va.) were treated with test compounds at 2e5 cells/ml in IMDM medium containing 10% (v/v) FBS (Life Technologies, Grand Island, N.Y.) and 1×Pen/Strep Amphotericin B (Lonza, Allendale, N.J.). Compounds were tested at 25 μM down by ⅓ in a 9 point serial dilution series. Cells were incubated for 48 h at 37° C. in a humidified atmosphere at 5% CO2. MV-4-11 cell proliferation was then indirectly determined via cellular ATP content using the CellTiter-Glo® Luminescent Cell Viability Assay (Promega, Madison, Wis.) as per the manufacturer's instructions. Briefly, experimental plates were equilibrated at room temperature for 30 minutes. An equal volume of CellTiter-Glo® reagent was added to each well and incubated for 15 minutes at room temperature. Luminescent signal was read using the Wallac 1420 Victor^2 multilabel microplate reader (Perkin Elmer, Waltham, Mass.). EC50 values were determined using GraphPad Prism software v5.04.

AurB or AurC = assay: Probe-based (AX9989) kinase profiling in Jurkat lysate: AurB or AurC; type: binding; conditions: screening concentration 10.0 μM
In short: (§1)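 Compounds were pre-incubated for 15 min at room temperature with gel-filtered Jurkat cell lysate supplemented with 20 mM MnCl2, after which the acyl phosphate ATP probe AX9989 was added at 5 μM final. Labeled active-site peptides were enriched after tryptic digestion and measured by LC/MS, with percent inhibition taken relative to samples without compound.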

AurA = target: T1, AurA (Homo sapiens, UniProt O14965); assay: Probe-based (AX9989) kinase profiling in Jurkat lysate: AurA; type: binding; conditions: screening concentration 10.0 μM; read-out: Kinase inhibition % at indicated screening concentration: AurA
T1 construct: screened for activity against several kinases in Jurkat cells; endogenous in cells; host or cells: Jurkat cell lysate
T1 sequence (O14965 1-403): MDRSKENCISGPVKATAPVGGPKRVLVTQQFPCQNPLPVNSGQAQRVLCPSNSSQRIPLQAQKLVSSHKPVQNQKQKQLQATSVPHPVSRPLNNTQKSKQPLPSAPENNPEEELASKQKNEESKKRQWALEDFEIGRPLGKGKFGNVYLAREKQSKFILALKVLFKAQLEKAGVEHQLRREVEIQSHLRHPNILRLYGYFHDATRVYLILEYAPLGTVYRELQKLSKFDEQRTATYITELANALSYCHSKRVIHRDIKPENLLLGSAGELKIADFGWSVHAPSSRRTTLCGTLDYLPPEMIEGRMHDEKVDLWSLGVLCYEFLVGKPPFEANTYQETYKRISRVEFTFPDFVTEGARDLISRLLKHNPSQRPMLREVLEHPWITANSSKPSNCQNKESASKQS
In short: as §1

ACK = target: T2, ACK (Homo sapiens, UniProt Q07912); assay: Probe-based (AX9989) kinase profiling in Jurkat lysate: ACK; type: binding; conditions: screening concentration 10.0 μM; read-out: Kinase inhibition % at indicated screening concentration: ACK
T2 construct: screened for activity against several kinases in Jurkat cells; endogenous in cells; host or cells: Jurkat cell lysate
T2 sequence (Q07912 whole entry): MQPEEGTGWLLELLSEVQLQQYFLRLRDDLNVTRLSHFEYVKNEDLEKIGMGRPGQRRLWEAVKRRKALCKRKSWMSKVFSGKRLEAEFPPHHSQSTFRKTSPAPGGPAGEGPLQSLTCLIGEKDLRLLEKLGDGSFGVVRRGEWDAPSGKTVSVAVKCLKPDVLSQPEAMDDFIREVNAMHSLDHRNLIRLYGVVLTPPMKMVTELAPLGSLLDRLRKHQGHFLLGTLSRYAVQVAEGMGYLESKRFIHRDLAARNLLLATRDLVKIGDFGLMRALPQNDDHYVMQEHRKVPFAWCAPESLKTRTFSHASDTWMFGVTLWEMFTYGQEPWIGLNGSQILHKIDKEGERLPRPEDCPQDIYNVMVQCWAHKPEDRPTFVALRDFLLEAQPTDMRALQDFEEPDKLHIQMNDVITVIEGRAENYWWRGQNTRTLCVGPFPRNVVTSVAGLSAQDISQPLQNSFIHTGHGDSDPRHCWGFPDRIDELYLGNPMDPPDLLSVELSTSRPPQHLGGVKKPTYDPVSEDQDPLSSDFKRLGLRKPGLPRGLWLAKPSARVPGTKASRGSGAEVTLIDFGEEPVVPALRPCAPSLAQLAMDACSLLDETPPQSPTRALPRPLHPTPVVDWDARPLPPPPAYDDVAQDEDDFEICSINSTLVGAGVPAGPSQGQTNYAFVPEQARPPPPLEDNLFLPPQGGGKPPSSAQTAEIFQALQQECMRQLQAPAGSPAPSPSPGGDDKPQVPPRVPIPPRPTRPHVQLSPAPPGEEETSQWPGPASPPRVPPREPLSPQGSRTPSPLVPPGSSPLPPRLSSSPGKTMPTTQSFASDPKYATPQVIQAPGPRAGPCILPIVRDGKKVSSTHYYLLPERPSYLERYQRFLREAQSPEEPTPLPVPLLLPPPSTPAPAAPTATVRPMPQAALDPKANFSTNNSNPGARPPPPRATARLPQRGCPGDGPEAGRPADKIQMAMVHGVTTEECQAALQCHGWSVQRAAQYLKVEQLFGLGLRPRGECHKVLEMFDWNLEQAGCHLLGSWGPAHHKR
In short: as §1

JAK1 = target: T3, JAK1 (Homo sapiens, UniProt P23458); assay: Probe-based (AX9989) kinase profiling in Jurkat lysate: JAK1; type: binding; conditions: screening concentration 10.0 μM; read-out: Kinase inhibition % at indicated screening concentration: JAK1
T3 construct: screened for activity against several kinases in Jurkat cells; endogenous in cells; host or cells: Jurkat cell lysate
T3 sequence (P23458 whole entry): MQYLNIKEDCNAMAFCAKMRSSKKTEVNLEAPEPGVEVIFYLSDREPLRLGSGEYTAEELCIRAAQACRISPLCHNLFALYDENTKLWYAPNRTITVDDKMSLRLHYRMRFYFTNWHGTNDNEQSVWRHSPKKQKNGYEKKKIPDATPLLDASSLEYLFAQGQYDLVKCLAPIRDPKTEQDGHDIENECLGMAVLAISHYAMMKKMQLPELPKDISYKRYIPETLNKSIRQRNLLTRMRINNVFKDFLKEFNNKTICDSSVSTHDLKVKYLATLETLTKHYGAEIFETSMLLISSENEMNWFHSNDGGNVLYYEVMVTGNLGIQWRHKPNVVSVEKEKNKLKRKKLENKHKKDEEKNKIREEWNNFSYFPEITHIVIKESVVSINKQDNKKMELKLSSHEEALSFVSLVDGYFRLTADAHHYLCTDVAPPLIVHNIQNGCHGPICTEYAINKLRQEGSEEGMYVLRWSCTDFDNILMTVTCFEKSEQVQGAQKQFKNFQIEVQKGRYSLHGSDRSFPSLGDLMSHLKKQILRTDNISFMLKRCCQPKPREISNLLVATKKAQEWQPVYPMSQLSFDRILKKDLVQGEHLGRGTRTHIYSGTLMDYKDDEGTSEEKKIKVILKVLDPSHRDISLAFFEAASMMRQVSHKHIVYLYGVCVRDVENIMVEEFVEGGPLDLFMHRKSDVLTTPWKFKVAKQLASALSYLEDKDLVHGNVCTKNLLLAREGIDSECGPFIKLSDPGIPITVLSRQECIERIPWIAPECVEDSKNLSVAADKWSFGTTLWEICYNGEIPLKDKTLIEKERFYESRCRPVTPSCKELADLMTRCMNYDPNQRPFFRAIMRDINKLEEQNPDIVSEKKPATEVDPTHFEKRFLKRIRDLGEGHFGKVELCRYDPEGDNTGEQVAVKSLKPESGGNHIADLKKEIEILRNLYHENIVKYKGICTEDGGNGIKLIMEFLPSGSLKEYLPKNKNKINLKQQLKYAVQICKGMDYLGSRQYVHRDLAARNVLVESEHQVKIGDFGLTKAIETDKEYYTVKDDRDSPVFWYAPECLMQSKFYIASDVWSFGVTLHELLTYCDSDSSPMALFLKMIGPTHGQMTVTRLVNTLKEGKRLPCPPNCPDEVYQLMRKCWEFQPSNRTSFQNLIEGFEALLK
In short: as §1

TAO2 = target: T4, TAO2 (Homo sapiens, UniProt Q9UL54); assay: Probe-based (AX9989) kinase profiling in Jurkat lysate: TAO2; type: binding; conditions: screening concentration 10.0 μM; read-out: Kinase inhibition % at indicated screening concentration: TAO2
T4 construct: screened for activity against several kinases in Jurkat cells; endogenous in cells; host or cells: Jurkat cell lysate
T4 sequence (Q9UL54 1-1235): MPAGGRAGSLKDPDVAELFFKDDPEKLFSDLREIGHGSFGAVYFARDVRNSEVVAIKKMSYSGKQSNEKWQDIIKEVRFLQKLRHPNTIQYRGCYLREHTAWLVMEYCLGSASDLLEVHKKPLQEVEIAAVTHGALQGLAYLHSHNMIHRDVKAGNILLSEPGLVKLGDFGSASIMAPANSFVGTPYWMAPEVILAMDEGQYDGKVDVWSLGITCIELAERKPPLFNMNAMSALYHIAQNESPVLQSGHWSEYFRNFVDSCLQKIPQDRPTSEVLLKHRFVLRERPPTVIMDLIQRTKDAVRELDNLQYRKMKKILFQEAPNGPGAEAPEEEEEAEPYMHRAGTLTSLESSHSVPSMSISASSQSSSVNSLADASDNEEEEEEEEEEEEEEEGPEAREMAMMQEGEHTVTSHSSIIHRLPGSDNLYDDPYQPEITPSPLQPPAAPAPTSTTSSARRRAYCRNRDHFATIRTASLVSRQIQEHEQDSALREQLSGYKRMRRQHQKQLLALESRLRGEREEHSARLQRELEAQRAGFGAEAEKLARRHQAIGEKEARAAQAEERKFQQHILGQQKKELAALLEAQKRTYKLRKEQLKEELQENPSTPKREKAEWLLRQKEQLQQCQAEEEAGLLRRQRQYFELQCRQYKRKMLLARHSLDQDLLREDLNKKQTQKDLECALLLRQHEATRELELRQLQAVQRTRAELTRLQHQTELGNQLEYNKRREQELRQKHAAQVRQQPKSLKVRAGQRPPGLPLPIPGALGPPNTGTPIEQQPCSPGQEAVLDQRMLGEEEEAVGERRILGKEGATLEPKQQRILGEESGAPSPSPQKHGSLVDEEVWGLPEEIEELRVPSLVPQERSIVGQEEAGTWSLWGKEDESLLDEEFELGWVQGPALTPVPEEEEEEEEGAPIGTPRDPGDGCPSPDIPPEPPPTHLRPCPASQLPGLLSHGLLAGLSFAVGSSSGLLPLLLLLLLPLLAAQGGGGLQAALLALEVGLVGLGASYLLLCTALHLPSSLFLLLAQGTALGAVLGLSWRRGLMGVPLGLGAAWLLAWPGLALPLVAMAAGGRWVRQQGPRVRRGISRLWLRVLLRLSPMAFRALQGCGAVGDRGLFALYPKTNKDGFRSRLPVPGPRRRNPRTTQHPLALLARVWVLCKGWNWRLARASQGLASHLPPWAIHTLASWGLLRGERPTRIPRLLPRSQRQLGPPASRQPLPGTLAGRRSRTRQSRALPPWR
In short: as §1

ERK5 = target: T5, ERK5 (Homo sapiens, UniProt Q13164); assay: Probe-based (AX9989 acyl phosphate ATP probe) kinase profiling in Jurkat lysate: ERK5; type: binding
T5 construct: screened for activity against several kinases in Jurkat cells; endogenous in cells; host or cells: Jurkat cell lysate
T5 sequence (Q13164 whole entry): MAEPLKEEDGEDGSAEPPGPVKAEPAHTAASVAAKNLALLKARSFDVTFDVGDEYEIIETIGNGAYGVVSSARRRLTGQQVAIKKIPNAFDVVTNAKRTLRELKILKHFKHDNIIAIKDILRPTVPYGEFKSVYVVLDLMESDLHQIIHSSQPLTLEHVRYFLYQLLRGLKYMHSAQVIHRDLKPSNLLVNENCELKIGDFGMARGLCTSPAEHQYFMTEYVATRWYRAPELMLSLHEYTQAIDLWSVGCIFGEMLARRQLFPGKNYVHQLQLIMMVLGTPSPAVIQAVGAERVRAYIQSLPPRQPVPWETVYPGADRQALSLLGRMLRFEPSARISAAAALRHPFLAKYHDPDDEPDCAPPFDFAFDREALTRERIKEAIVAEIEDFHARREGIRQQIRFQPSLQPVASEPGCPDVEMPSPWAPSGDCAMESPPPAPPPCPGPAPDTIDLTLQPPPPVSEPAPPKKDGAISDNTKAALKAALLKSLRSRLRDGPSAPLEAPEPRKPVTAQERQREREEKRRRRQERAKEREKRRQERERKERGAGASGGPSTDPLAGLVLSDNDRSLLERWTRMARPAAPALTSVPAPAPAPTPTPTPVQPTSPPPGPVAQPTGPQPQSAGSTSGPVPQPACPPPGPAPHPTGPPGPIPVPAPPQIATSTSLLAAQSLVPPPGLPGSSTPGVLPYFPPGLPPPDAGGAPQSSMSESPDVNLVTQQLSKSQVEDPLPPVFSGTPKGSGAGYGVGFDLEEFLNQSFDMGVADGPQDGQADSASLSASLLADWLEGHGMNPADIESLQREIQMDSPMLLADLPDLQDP
In short: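 Gel-filtered Jurkat lysate (5 mg/ml, 20 mM MnCl2) preincubated 15 min at room temperature with compound, then labelled with 5 μM AX9989 acyl phosphate ATP probe. Probe-labelled ERK5 active-site peptides quantified by LC/MS after trypsin digestion and streptavidin capture; IC50 calculated from percent inhibition at the screening concentration.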

AMPKa1 or AMPKa2 = assay: Probe-based (AX9989) kinase profiling in Jurkat lysate: AMPKa1 or AMPKa2; type: binding; conditions: screening concentration 10.0 μM
In short: as §1

ABL or ARG = assay: Probe-based (AX9989) kinase profiling in Jurkat lysate: ABL or ARG; type: binding; conditions: screening concentration 10.0 μM
In short: as §1

| EC50 (MV-4-11 cells [1]; read-out: EC50 (μM) of Ara-C in combination with a fixed concentration of compound 61 at EC50) [µM] | EC50 (MV-4-11 cells [1]; read-out: EC50 (μM) of Ara-C in combination with a fixed concentration of compound 61 at ⅓ EC50) [µM] | EC50 (MV-4-11 cells [1]; read-out: EC50 (μM) of Ara-C, compound 61 not present) [µM] | EC50 (MV-4-11 cells [2]) [nM] | Kinase inhibition % at indicated screening concentration: AurB or AurC (AurB or AurC) | inhibition at 10 µM (AurA) [%] | inhibition at 10 µM (ACK) [%] | inhibition at 10 µM (JAK1) [%] | inhibition at 10 µM (TAO2) [%] | IC50 (ERK5; calculated from percent inhibition of AX9989 labeling and the screening concentration, Jurkat lysate) [nM] | inhibition at 10 µM (ERK5; screening concentration 10.0 μM, read-out: Kinase inhibition % at indicated screening concentration: ERK5) [%] | Kinase inhibition % at indicated screening concentration: AMPKa1 or AMPKa2 (AMPKa1 or AMPKa2) | Kinase inhibition % at indicated screening concentration: ABL or ARG (ABL or ARG) | SMILES |
| --- | --- | --- | --- | --- | --- | --- | --- | --- | --- | --- | --- | --- | --- |
| 0.108 | 0.265 | 0.353 |  |  |  |  |  |  |  |  |  |  | Nc1ccn([C@@H]2O[C@H](CO)[C@@H](O)[C@@H]2O)c(=O)n1 [Ara-C] |
|  |  |  | 60 | A (A>90%) | > 90 | 75 to 90 | 50 to 75 | 50 to 75 | > 500 | 75 to 90 | C (C is >50% to ≦75%) | C (C is >50% to ≦75%) | CN1C(=O)c2ccccc2N(C)c2cc(Nc3ccc(N4CCC(O)CC4)cn3)ncc21 [Compound 4] |
